# From PubChem BioAssay (NCI)
#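 Assay format: 96-well plates, 48-hour exposure. Here, GI50 denotes the concentration required for 50% inhibition of growth. At the TGI there is no net growth.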
# Columns and labels:
# Assay in all cases: NCI-60 cell line screen, 48 h
# NCI-H522 lung = system: NCI-H522 lung
# LOX IMVI melanoma = system: LOX IMVI melanoma
# OVCAR-5 ovarian = system: OVCAR-5 ovarian
# MCF7 breast = system: MCF7 breast
# CCRF-CEM leukemia = system: CCRF-CEM leukemia
# HCT-116 colon = system: HCT-116 colon
# HCT-15 colon = system: HCT-15 colon
# PC-3 prostate = system: PC-3 prostate
# NCI/ADR-RES ovarian = system: NCI/ADR-RES ovarian
# DU-145 prostate = system: DU-145 prostate
# A549 NSCLC = system: A549 NSCLC
# A498 renal = system: A498 renal
# NCI-H226 lung = system: NCI-H226 lung
# HS 578T breast = system: HS 578T breast
# SK-MEL-2 melanoma = system: SK-MEL-2 melanoma
# RPMI-8226 leukemia = system: RPMI-8226 leukemia
# ACHN renal = system: ACHN renal
# SK-MEL-28 melanoma = system: SK-MEL-28 melanoma
# HOP-62 NSCLC = system: HOP-62 NSCLC
# CAKI-1 renal = system: CAKI-1 renal
# NCI-H23 lung = system: NCI-H23 lung
# NCI-H460 lung = system: NCI-H460 lung
# TK-10 renal = system: TK-10 renal
# IGROV1 ovarian = system: IGROV1 ovarian
# MALME-3M melanoma = system: MALME-3M melanoma
# MDA-MB-231 breast = system: MDA-MB-231 breast
# MOLT-4 leukemia = system: MOLT-4 leukemia
# 786-0 renal = system: 786-0 renal
# SNB-19 CNS = system: SNB-19 CNS
# UACC-62 melanoma = system: UACC-62 melanoma
# U251 CNS = system: U251 CNS
# SK-OV-3 ovarian = system: SK-OV-3 ovarian
# HOP-92 NSCLC = system: HOP-92 NSCLC
# KM12 colon = system: KM12 colon
# M14 melanoma = system: M14 melanoma
# BT-549 breast = system: BT-549 breast
# SF-295 CNS = system: SF-295 CNS
# SF-539 CNS = system: SF-539 CNS
# K-562 leukemia = system: K-562 leukemia
# SK-MEL-5 melanoma = system: SK-MEL-5 melanoma
# OVCAR-8 ovarian = system: OVCAR-8 ovarian
# MDA-MB-435 = system: MDA-MB-435
# SW-620 colon = system: SW-620 colon
# SNB-75 CNS = system: SNB-75 CNS
# SR leukemia = system: SR leukemia
# COLO 205 colon = system: COLO 205 colon
# RXF 393 renal = system: RXF 393 renal
# OVCAR-4 ovarian = system: OVCAR-4 ovarian
# UACC-257 melanoma = system: UACC-257 melanoma
# SN12C renal = system: SN12C renal
# OVCAR-3 ovarian = system: OVCAR-3 ovarian
# T-47D breast = system: T-47D breast
# HT29 colon = system: HT29 colon
# EKVX NSCLC = system: EKVX NSCLC
# HL-60(TB) leukemia = system: HL-60(TB) leukemia
# HCC-2998 colon = system: HCC-2998 colon
# SF-268 CNS = system: SF-268 CNS
# UO-31 renal = system: UO-31 renal
# MDA-N = system: MDA-N
smiles,measurement,setting,value
COCCOC(=O)C1=C(C)NC2=C(C(=O)CC(c3ccccc3OC)C2)C1c1cccc(O)c1 (centres undefined),GI50,NCI-H522 lung,6.47 µM
same,TGI,NCI-H522 lung,33.6 µM
same,GI50,LOX IMVI melanoma,9.04 µM
same,TGI,LOX IMVI melanoma,30.4 µM
same,GI50,OVCAR-5 ovarian,23.3 µM
same,TGI,OVCAR-5 ovarian,> 100 µM
same,GI50,MCF7 breast,4.31 µM
same,TGI,MCF7 breast,72.4 µM
same,GI50,CCRF-CEM leukemia,11.3 µM
same,TGI,CCRF-CEM leukemia,83.6 µM
same,GI50,HCT-116 colon,12.8 µM
same,TGI,HCT-116 colon,35.4 µM
same,GI50,HCT-15 colon,19.8 µM
same,TGI,HCT-15 colon,> 61.9 µM
same,GI50,PC-3 prostate,8.15 µM
same,TGI,PC-3 prostate,> 95.2 µM
same,GI50,NCI/ADR-RES ovarian,35.9 µM
same,TGI,NCI/ADR-RES ovarian,> 100 µM
same,GI50,DU-145 prostate,23.5 µM
same,TGI,DU-145 prostate,> 91.9 µM
same,GI50,A549 NSCLC,13.1 µM
same,TGI,A549 NSCLC,> 72.2 µM
same,GI50,A498 renal,10.2 µM
same,TGI,A498 renal,25.9 µM
same,GI50,NCI-H226 lung,8.64 µM
same,TGI,NCI-H226 lung,35.7 µM
same,GI50,HS 578T breast,2.04 µM
same,TGI,HS 578T breast,> 26.2 µM
same,GI50,SK-MEL-2 melanoma,10.1 µM
same,TGI,SK-MEL-2 melanoma,26.7 µM
same,GI50,RPMI-8226 leukemia,4.01 µM
same,TGI,RPMI-8226 leukemia,31.4 µM
same,GI50,ACHN renal,19.1 µM
same,TGI,ACHN renal,71.2 µM
same,GI50,SK-MEL-28 melanoma,12.6 µM
same,TGI,SK-MEL-28 melanoma,50.6 µM
same,GI50,HOP-62 NSCLC,5.84 µM
same,TGI,HOP-62 NSCLC,44.3 µM
same,GI50,CAKI-1 renal,4.43 µM
same,TGI,CAKI-1 renal,31.3 µM
same,GI50,NCI-H23 lung,14.7 µM
same,TGI,NCI-H23 lung,56.6 µM
same,GI50,NCI-H460 lung,15.5 µM
same,TGI,NCI-H460 lung,42.9 µM
same,GI50,TK-10 renal,4.26 µM
same,TGI,TK-10 renal,30.7 µM
same,GI50,IGROV1 ovarian,9.54 µM
same,TGI,IGROV1 ovarian,52.4 µM
same,GI50,MALME-3M melanoma,13.9 µM
same,TGI,MALME-3M melanoma,47.6 µM
same,GI50,MDA-MB-231 breast,13 µM
same,TGI,MDA-MB-231 breast,> 72.8 µM
same,GI50,MOLT-4 leukemia,22 µM
same,TGI,MOLT-4 leukemia,> 77.6 µM
same,GI50,786-0 renal,12.2 µM
same,TGI,786-0 renal,51.6 µM
same,GI50,SNB-19 CNS,16 µM
same,TGI,SNB-19 CNS,> 100 µM
same,GI50,UACC-62 melanoma,4.51 µM
same,TGI,UACC-62 melanoma,29.3 µM
same,GI50,U251 CNS,16.3 µM
same,TGI,U251 CNS,> 72.2 µM
same,GI50,SK-OV-3 ovarian,7.77 µM
same,TGI,SK-OV-3 ovarian,32.5 µM
same,GI50,HOP-92 NSCLC,1.04 µM
same,TGI,HOP-92 NSCLC,15.4 µM
same,GI50,KM12 colon,11.5 µM
same,TGI,KM12 colon,30 µM
same,GI50,M14 melanoma,11.8 µM
same,TGI,M14 melanoma,39.5 µM
same,GI50,BT-549 breast,11.7 µM
same,TGI,BT-549 breast,37.5 µM
same,GI50,SF-295 CNS,11.5 µM
same,TGI,SF-295 CNS,35.2 µM
same,GI50,SF-539 CNS,11.9 µM
same,TGI,SF-539 CNS,43.4 µM
same,GI50,K-562 leukemia,7.97 µM
same,TGI,K-562 leukemia,> 85.4 µM
same,GI50,SK-MEL-5 melanoma,3.54 µM
same,TGI,SK-MEL-5 melanoma,16.6 µM
same,GI50,OVCAR-8 ovarian,11.3 µM
same,TGI,OVCAR-8 ovarian,34.9 µM
same,GI50,MDA-MB-435,5.31 µM
same,TGI,MDA-MB-435,25.4 µM
same,GI50,SW-620 colon,12.5 µM
same,TGI,SW-620 colon,33.5 µM
same,GI50,SNB-75 CNS,2.43 µM
same,TGI,SNB-75 CNS,30.9 µM
same,GI50,SR leukemia,8.76 µM
same,TGI,SR leukemia,> 59.6 µM
same,GI50,COLO 205 colon,8.55 µM
same,TGI,COLO 205 colon,24.8 µM
same,GI50,RXF 393 renal,14.1 µM
same,TGI,RXF 393 renal,36.4 µM
same,GI50,OVCAR-4 ovarian,8.98 µM
same,TGI,OVCAR-4 ovarian,> 80.5 µM
same,GI50,UACC-257 melanoma,8.8 µM
same,TGI,UACC-257 melanoma,61.1 µM
same,GI50,SN12C renal,21.7 µM
same,TGI,SN12C renal,> 100 µM
same,GI50,OVCAR-3 ovarian,9.13 µM
same,TGI,OVCAR-3 ovarian,23.9 µM
same,GI50,T-47D breast,5.99 µM
same,TGI,T-47D breast,54.3 µM
same,GI50,HT29 colon,5.38 µM
same,TGI,HT29 colon,25.3 µM
same,GI50,EKVX NSCLC,14.4 µM
same,TGI,EKVX NSCLC,> 100 µM
same,GI50,HL-60(TB) leukemia,3.2 µM
same,TGI,HL-60(TB) leukemia,36 µM
same,GI50,HCC-2998 colon,12.2 µM
same,TGI,HCC-2998 colon,27 µM
same,GI50,SF-268 CNS,15.8 µM
same,TGI,SF-268 CNS,53.4 µM
same,GI50,UO-31 renal,3.62 µM
same,TGI,UO-31 renal,45.8 µM
CC1C(c2ccc3c(c2)OCO3)c2cc3c(cc2OC1N1CCCC1)OCO3 (centres undefined),TGI,NCI-H522 lung,80.4 µM
same,TGI,LOX IMVI melanoma,> 100 µM
same,TGI,OVCAR-5 ovarian,> 100 µM
same,TGI,MCF7 breast,> 100 µM
same,TGI,CCRF-CEM leukemia,76.1 µM
same,TGI,HCT-116 colon,54.8 µM
same,TGI,HCT-15 colon,> 100 µM
same,TGI,PC-3 prostate,> 100 µM
same,TGI,NCI/ADR-RES ovarian,87.7 µM
same,TGI,DU-145 prostate,> 100 µM
same,TGI,A549 NSCLC,> 100 µM
same,TGI,HS 578T breast,44.5 µM
same,TGI,SK-MEL-2 melanoma,90.4 µM
same,TGI,RPMI-8226 leukemia,73.2 µM
same,TGI,ACHN renal,> 100 µM
same,TGI,SK-MEL-28 melanoma,> 100 µM
same,TGI,HOP-62 NSCLC,> 100 µM
same,TGI,CAKI-1 renal,38.6 µM
same,TGI,NCI-H23 lung,> 100 µM
same,TGI,NCI-H460 lung,> 100 µM
same,TGI,TK-10 renal,> 100 µM
same,TGI,IGROV1 ovarian,> 100 µM
same,TGI,MOLT-4 leukemia,69.9 µM
same,TGI,786-0 renal,> 100 µM
same,TGI,SNB-19 CNS,> 100 µM
same,TGI,UACC-62 melanoma,> 100 µM
same,TGI,KM12 colon,> 100 µM
same,TGI,M14 melanoma,57.6 µM
same,TGI,SF-295 CNS,> 100 µM
same,TGI,SF-539 CNS,50.9 µM
same,TGI,K-562 leukemia,61.4 µM
same,TGI,SK-MEL-5 melanoma,47.2 µM
same,TGI,OVCAR-8 ovarian,> 100 µM
same,TGI,MDA-MB-435,23.7 µM
same,TGI,SW-620 colon,> 100 µM
same,TGI,SNB-75 CNS,61.7 µM
same,TGI,SR leukemia,89.8 µM
same,TGI,COLO 205 colon,> 100 µM
same,TGI,UACC-257 melanoma,> 100 µM
same,TGI,SN12C renal,> 100 µM
same,TGI,OVCAR-3 ovarian,> 100 µM
same,TGI,T-47D breast,> 100 µM
same,TGI,MDA-N,52.3 µM
same,TGI,HT29 colon,> 100 µM
same,TGI,EKVX NSCLC,> 100 µM
same,TGI,HCC-2998 colon,49.1 µM
same,TGI,SF-268 CNS,> 100 µM
same,TGI,UO-31 renal,73 µM
